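96-well plates; 48 h exposure; 5 concentrations. Endpoints by linear interpolation between flanking doses. Not reached: highest tested concentration assigned. TGI denotes the concentration required for complete inhibition of growth.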 Peptide text beside a SMILES is read from it. * marks the point of attachment. OSu = O=C1CCC(=O)N1O*; OBn = c1ccc(CO*)cc1; Bn = c1ccc(C*)cc1
Tests used:
Test in all cases: NCI-60 cell line screen, 48 h
[1] = test system: M14 melanoma
[2] = test system: RPMI-8226 leukemia
[3] = test system: A549 NSCLC
[4] = test system: KM12 colon
[5] = test system: CAKI-1 renal
[6] = test system: MALME-3M melanoma
[7] = test system: UACC-257 melanoma
[8] = test system: NCI-H226 lung
[9] = test system: SK-MEL-5 melanoma
[10] = test system: SNB-19 CNS

## Cc1ccc(C2(c3ccc(C)c(O)c3C)CCN(C)CC2)c(C)c1O
[1]
  TGI: > 100 µM
[2]
  TGI: > 100 µM
[3]
  TGI: > 100 µM
[4]
  TGI: > 100 µM
[5]
  TGI: > 100 µM
[6]
  TGI: > 100 µM
[7]
  TGI: 35.3 µM
[8]
  TGI: > 100 µM
[9]
  TGI: > 100 µM
[10]
  TGI: > 100 µM

## O=C1NC(=S)NC(=O)C1=Cc1ccc2ccccc2n1
[1]
  TGI: > 100 µM
[2]
  TGI: > 100 µM
[3]
  TGI: > 100 µM
[4]
  TGI: > 100 µM
[5]
  TGI: > 100 µM
[6]
  TGI: > 100 µM
[7]
  TGI: > 100 µM
[8]
  TGI: > 100 µM
[9]
  TGI: > 100 µM
[10]
  TGI: > 100 µM

## COc1ccc(N2C(=O)C3c4[nH]c5ccccc5c4C4CCC(C(C)(C)C)CC4C3C2=O)cc1OC (centres undefined)
[1]
  TGI: > 100 µM
[2]
  TGI: 61.5 µM
[3]
  TGI: 32.6 µM
[6]
  TGI: > 100 µM
[7]
  TGI: > 100 µM
[8]
  TGI: 38.8 µM
[9]
  TGI: > 100 µM
[10]
  TGI: 71.3 µM

## c1ccc2nn(C3CCCCO3)nc2c1 (centres undefined)
[1]
  TGI: > 100 µM
[3]
  TGI: > 100 µM
[4]
  TGI: > 100 µM
[5]
  TGI: > 100 µM
[6]
  TGI: > 100 µM
[7]
  TGI: > 100 µM
[8]
  TGI: > 100 µM
[9]
  TGI: > 100 µM
[10]
  TGI: > 100 µM

## COC1=C(OC)C(=O)C(Cc2c(Cl)nc3n2CCS3)=C(C)C1=O
[1]
  TGI: 27.2 µM
[2]
  TGI: 26.9 µM
[3]
  TGI: 40.6 µM
[4]
  TGI: 30.8 µM
[5]
  TGI: 46.7 µM
[6]
  TGI: 21.6 µM
[7]
  TGI: 22.2 µM
[9]
  TGI: 23.9 µM
[10]
  TGI: 33.1 µM

## Cc1nn(C(=O)c2ccc(Cl)cc2)c2c1C(c1ccco1)SC(N)=N2 (centres undefined)
[1]
  TGI: > 10 µM
[2]
  TGI: > 10 µM
[3]
  TGI: > 10 µM
[4]
  TGI: > 10 µM
[5]
  TGI: > 10 µM
[7]
  TGI: > 10 µM
[8]
  TGI: > 10 µM
[9]
  TGI: > 10 µM
[10]
  TGI: > 10 µM

## O=C(CC(=O)Nc1ccccc1Cl)NNC(Sc1ccccc1)c1cc(N=Nc2ccc(Br)cc2)ccc1O (centres undefined)
[1]
  TGI: 2.68 µM
[2]
  TGI: > 10 µM
[3]
  TGI: > 10 µM
[4]
  TGI: 5.04 µM
[5]
  TGI: 7.19 µM
[6]
  TGI: 8.73 µM
[7]
  TGI: > 10 µM
[8]
  TGI: 6.04 µM
[9]
  TGI: 3.95 µM
[10]
  TGI: > 10 µM

## COc1cnnc2c(C)c(-c3ccccc3)nn12
[1]
  TGI: > 100 µM
[2]
  TGI: > 100 µM
[3]
  TGI: > 100 µM
[4]
  TGI: > 100 µM
[5]
  TGI: > 100 µM
[6]
  TGI: > 100 µM
[7]
  TGI: > 100 µM
[8]
  TGI: > 100 µM
[9]
  TGI: > 100 µM
[10]
  TGI: > 100 µM

## O=c1c(S(=O)(=O)Oc2ccccc2)coc2cc(F)ccc12
[1]
  TGI: > 100 µM
[3]
  TGI: > 100 µM
[4]
  TGI: > 100 µM
[5]
  TGI: > 100 µM
[6]
  TGI: > 100 µM
[7]
  TGI: > 100 µM
[8]
  TGI: 73.6 µM
[9]
  TGI: > 100 µM
[10]
  TGI: > 100 µM

## Cc1csc2n(C)c(=O)c3ccccc3[n+]12
[1]
  TGI: > 100 µM
[2]
  TGI: > 100 µM
[3]
  TGI: > 100 µM
[4]
  TGI: > 100 µM
[5]
  TGI: > 100 µM
[7]
  TGI: > 100 µM
[8]
  TGI: > 100 µM
[9]
  TGI: > 100 µM
[10]
  TGI: > 100 µM

## O=C(NC(CO)CO)c1ccc2cc(C(=O)N3CC(CCl)c4ccc([N+](=O)[O-])cc43)[nH]c2c1 (centres undefined)
[1]
  TGI: > 100 µM
[3]
  TGI: > 100 µM
[4]
  TGI: > 100 µM
[5]
  TGI: > 100 µM
[6]
  TGI: > 100 µM
[7]
  TGI: > 100 µM
[8]
  TGI: > 100 µM
[9]
  TGI: > 100 µM
[10]
  TGI: > 100 µM

## CCOC(=O)CCC(NC(=O)c1ccc(NCc2ccc3nc(-c4ccccc4)c(Cl)nc3c2)c2ccccc12)C(=O)OCC (centres undefined)
[1]
  TGI: > 100 µM
[3]
  TGI: > 100 µM
[4]
  TGI: > 100 µM
[5]
  TGI: > 100 µM
[6]
  TGI: > 100 µM
[7]
  TGI: 61.5 µM
[8]
  TGI: > 100 µM
[9]
  TGI: > 100 µM
[10]
  TGI: > 100 µM

## Clc1ccc(-c2nn3c(C45CC6CC(CC(C6)C4)C5)nnc3s2)cc1
[1]
  TGI: > 100 µM
[2]
  TGI: > 100 µM
[3]
  TGI: > 100 µM
[4]
  TGI: > 100 µM
[5]
  TGI: > 100 µM
[6]
  TGI: > 100 µM
[8]
  TGI: > 100 µM
[9]
  TGI: > 100 µM
[10]
  TGI: > 100 µM

## CCOC(=O)O/N=C1/C(c2c(O)[nH]c3ccccc23)=Nc2ccccc21
[1]
  TGI: 24.2 µM
[2]
  TGI: > 100 µM
[3]
  TGI: 33.1 µM
[4]
  TGI: 13.8 µM
[5]
  TGI: 14.5 µM
[6]
  TGI: 22.1 µM
[7]
  TGI: 24.6 µM
[9]
  TGI: 6.99 µM
[10]
  TGI: 95.1 µM

## CC(CC(C)(C)[N+](C)(C)C)[N+](C)(C)C (centres undefined)
[1]
  TGI: > 100 µM
[2]
  TGI: > 100 µM
[3]
  TGI: > 100 µM
[4]
  TGI: > 100 µM
[5]
  TGI: > 100 µM
[7]
  TGI: > 100 µM
[8]
  TGI: > 100 µM
[9]
  TGI: > 100 µM
[10]
  TGI: > 100 µM

## CC1CN=C(N(C)C(=O)Nc2ccc(Cl)c(Cl)c2)S1 (centres undefined)
[1]
  TGI: 38 µM
[2]
  TGI: > 100 µM
[3]
  TGI: > 100 µM
[4]
  TGI: > 100 µM
[5]
  TGI: 61.8 µM
[6]
  TGI: > 100 µM
[7]
  TGI: > 100 µM
[9]
  TGI: 29.9 µM
[10]
  TGI: > 100 µM

## CC(C)C[C@H](NC(=O)[C@H](CCc1ccccc1)NC(=O)c1ccc2ccccc2n1)B(O)O
[1]
  TGI: 0.0289 µM
[2]
  TGI: > 39.1 µM
[3]
  TGI: 13.4 µM
[4]
  TGI: 0.295 µM
[5]
  TGI: 4.73 µM
[7]
  TGI: 0.0676 µM
[8]
  TGI: 0.367 µM
[9]
  TGI: 0.647 µM
[10]
  TGI: 13.1 µM

## CC(C)CC(NC(=O)C(N)CCC(=O)OCc1ccccc1)C(=O)NC(COCc1ccccc1)C(=O)NC(Cc1ccccc1)C(=O)ON1C(=O)CCC1=O (centres undefined) (H-E(OBn)LS(Bn)F-OSu; configuration not given here)
[1]
  TGI: > 100 µM
[2]
  TGI: 61.4 µM
[3]
  TGI: > 100 µM
[4]
  TGI: > 100 µM
[5]
  TGI: 64 µM
[6]
  TGI: 96.1 µM
[7]
  TGI: 66.1 µM
[9]
  TGI: 35.8 µM
[10]
  TGI: 95.1 µM

## O=Cc1cc(O)c(O)c(/C=N/n2c3ccccc3c3ccccc32)c1
[1]
  TGI: 23.6 µM
[2]
  TGI: 6.49 µM
[3]
  TGI: > 100 µM
[4]
  TGI: 84.3 µM
[5]
  TGI: 36.6 µM
[6]
  TGI: 30.8 µM
[7]
  TGI: 27.9 µM
[8]
  TGI: 33.2 µM
[10]
  TGI: > 100 µM

## CC(C)(Oc1ccc(C(=O)c2ccc(Cl)cc2)cc1Cl)C(=O)N1CCN(c2ccccc2)CC1
[1]
  TGI: > 100 µM
[2]
  TGI: > 100 µM
[3]
  TGI: > 100 µM
[4]
  TGI: > 100 µM
[6]
  TGI: > 100 µM
[7]
  TGI: > 100 µM
[9]
  TGI: > 100 µM
[10]
  TGI: > 100 µM

## COc1cc(C(CC(OC)OC)=C(C#N)C#N)cc(OC)c1OC
[3]
  TGI: > 100 µM
[4]
  TGI: 60.5 µM
[5]
  TGI: > 100 µM
[6]
  TGI: 76.9 µM
[7]
  TGI: 36.9 µM
[8]
  TGI: 13.9 µM
[9]
  TGI: 49.2 µM
[10]
  TGI: > 100 µM

## Cc1cnc2[nH]c(-c3cccc(Cl)c3)cc(=O)c2c1
[1]
  TGI: > 100 µM
[3]
  TGI: > 100 µM
[4]
  TGI: > 100 µM
[5]
  TGI: 59.7 µM
[6]
  TGI: > 100 µM
[7]
  TGI: > 100 µM
[8]
  TGI: 87.3 µM
[9]
  TGI: 16 µM
[10]
  TGI: 41.3 µM
